IC50 data for three compounds are collected here from ChEMBL document CHEMBL1128082, “Inhibition of an HIV-1 Tat-derived peptide binding to TAR RNA by aminoglycoside antibiotics” (Bioorg Med Chem Lett, 1995).

For the test, the target named is Nucleic Acid. Description: Concentration required for the inhibition of HIV- 1 Tat-derived peptide binding to TAR RNA. The format is nucleic-acid assay.
With `NC[C@@H]1O[C@H](O[C@H]2[C@@H](O)[C@H](O[C@@H]3[C@@H](O)[C@H](N)C[C@H](N)[C@H]3O[C@H]3O[C@H](CN)[C@@H](O)[C@H](O)[C@H]3N)O[C@@H]2CO)[C@H](N)[C@@H](O)[C@@H]1O` [FRAMYCETIN], the IC50 stood at 0.92 µM.
For the compound `CN[C@@H]1[C@H](O[C@H]2[C@H](O[C@H]3[C@H](O)[C@@H](O)[C@H](N=C(N)N)[C@@H](O)[C@@H]3N=C(N)N)O[C@@H](C)[C@]2(O)C=O)O[C@@H](CO)[C@H](O)[C@H]1O` [STREPTOMYCIN], the IC50 is 9.5 µM.
Compound GENTAMICIN showed an IC50 of 45 µM.
